Experimental data: US12473262B2, “Aryl hydrocarbon receptor activators” (Oregon State University, priority 2019, dated 2025)

Target: aryl hydrocarbon receptor (AhR) (Mus musculus (Mouse), UniProt P30561)
Assay: AhR ligand screening: AhRE-luciferase reporter in transfected Hepa1 cells
Type: cell-based
Conditions: for Fold @ 1 nM: fold change of luciferase expression at 1 nM test compound relative to vehicle (0.1% DMSO); for Fold @ 100 nM: fold change of luciferase expression at 100 nM test compound relative to vehicle (0.1% DMSO); for Fold @ 10 uM: fold change of luciferase expression at 10 uM test compound relative to vehicle (0.1% DMSO); for Fold relative to benchmark @ 100 nM: luciferase expression at 100 nM test compound relative to 100 nM benchmark compound 11-cl-BBQ
Text: The AhR is a ligand-activated transcription factor that dimerizes with ARNT to regulate gene expression, and genes that are regulated by AhR ligands have AhR response elements (AhRE) in their promotor regions.
Briefly, Hepa1 cells were transfected with a reporter construct consisting of AhRE linked to luciferase. The addition of AhR ligands to the transfected cells induces luciferase production that is directly proportional to the amount of AhR activation. We used this reporter system to identify novel compounds with AhR-activating properties. Transfected Hepa1 cells were plated at a density of 1×10^4 cells/well in 100 μL of cell culture media in 96 well plates and grown overnight. […] Following incubation with the compounds, the media was removed, and cells were harvested with lysis buffer. The lysates were transferred to opaque 96 well plates, where they were assayed well-by-well for luciferase activity by injection of luciferase assay substrate with a 2 sec mixing time and 15 sec integration period on a Tropix TR717 microplate luminometer. Data were expressed as fold induction of luciferase relative to vehicle (0.1% DMSO) treated cells.

aryl hydrocarbon receptor (AhR), sequence (P30561 10-805): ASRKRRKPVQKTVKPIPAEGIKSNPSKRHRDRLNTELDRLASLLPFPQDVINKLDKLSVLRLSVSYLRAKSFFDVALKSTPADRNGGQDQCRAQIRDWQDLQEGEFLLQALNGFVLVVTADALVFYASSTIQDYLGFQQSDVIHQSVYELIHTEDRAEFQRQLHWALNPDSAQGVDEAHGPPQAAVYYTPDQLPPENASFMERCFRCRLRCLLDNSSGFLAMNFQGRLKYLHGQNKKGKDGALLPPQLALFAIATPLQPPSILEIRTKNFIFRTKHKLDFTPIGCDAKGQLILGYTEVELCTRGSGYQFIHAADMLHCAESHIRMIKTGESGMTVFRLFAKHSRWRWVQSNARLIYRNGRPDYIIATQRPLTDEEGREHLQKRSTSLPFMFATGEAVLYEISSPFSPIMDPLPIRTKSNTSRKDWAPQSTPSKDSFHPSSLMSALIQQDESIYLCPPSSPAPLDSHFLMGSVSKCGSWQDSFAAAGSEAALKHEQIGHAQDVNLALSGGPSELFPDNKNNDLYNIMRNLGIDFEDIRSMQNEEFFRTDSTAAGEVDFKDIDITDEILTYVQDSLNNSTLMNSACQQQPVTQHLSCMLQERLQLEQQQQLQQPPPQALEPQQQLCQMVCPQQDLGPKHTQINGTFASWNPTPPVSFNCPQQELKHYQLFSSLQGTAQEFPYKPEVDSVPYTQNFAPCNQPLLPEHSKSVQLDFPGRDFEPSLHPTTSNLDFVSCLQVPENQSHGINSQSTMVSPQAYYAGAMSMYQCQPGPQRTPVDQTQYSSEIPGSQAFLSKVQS
aryl hydrocarbon receptor (AhR), sequence (P53762 whole entry partner): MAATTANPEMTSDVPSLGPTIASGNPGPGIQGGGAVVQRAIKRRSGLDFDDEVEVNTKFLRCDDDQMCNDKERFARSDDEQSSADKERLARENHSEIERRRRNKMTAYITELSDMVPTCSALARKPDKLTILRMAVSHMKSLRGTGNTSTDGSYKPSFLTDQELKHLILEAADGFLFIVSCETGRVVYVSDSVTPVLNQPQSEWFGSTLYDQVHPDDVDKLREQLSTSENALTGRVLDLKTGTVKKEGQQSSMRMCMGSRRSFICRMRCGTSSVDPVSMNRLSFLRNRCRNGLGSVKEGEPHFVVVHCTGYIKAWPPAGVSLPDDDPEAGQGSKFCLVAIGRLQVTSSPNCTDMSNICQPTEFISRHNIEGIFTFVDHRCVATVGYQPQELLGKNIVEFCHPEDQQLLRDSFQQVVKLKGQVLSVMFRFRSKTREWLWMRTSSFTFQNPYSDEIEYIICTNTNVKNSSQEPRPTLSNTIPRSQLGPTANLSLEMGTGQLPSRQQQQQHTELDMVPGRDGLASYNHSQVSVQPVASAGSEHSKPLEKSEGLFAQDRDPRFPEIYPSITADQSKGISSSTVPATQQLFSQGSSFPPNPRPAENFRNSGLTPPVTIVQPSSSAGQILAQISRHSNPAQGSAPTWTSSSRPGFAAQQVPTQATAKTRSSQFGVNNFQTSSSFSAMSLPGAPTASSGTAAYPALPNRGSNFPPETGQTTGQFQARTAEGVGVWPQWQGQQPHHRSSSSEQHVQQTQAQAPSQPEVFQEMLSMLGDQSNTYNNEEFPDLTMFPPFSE

SMILES | Fold @ 1 nM [fold] | Fold @ 100 nM [fold] | Fold @ 10 uM [fold] | Fold relative to benchmark @ 100 nM [fold]
COc1ccc(C(=O)n2c(-c3cccc(C(F)(F)F)c3)nc3ccc(Cl)cc32)cc1 [Compound 765] | 1 | 2 | 14 | 0.08
O=C(c1ccc2nc(-c3cccc4ccccc34)n(Cc3ccc(F)cc3)c2c1)N1CCOCC1 [Compound 1404] | 1 | 1 | 6 | 0.03
O=C(c1ccccc1)n1c(-c2cccc3c2CCCC3)nc2ccc(Cl)cc21 [Compound 778] | 1 | 1 | 8 | 0.04
O=C(c1ccc(F)c(F)c1)n1c(-c2c3ccccc3cc3ccccc23)nc2ccc(Cl)cc21 [Compound 642] | 1 | 1 | 27 | 0.11
Clc1ccc2c(c1)nc(-c1cccc3ccccc13)n2Cc1ccnc2ccccc12 [Compound 867] | 1 | 2 | 32 | 0.07
COC(=O)c1ccc2nc(-c3cccc4ccccc34)n(C(=O)c3ccc(OC(F)(F)F)cc3)c2c1 [Compound 1405] | 1 | 2 | 30 | 0.07
O=C(c1ccc2c(c1)nc(-c1cccc3ccccc13)n2S(=O)(=O)c1ccc2ccccc2c1)N1CCOCC1 [Compound 1363] | 1 | 1 | 4 | 0.03
O=C(c1ccc(F)c(F)c1)n1c(-c2ccc(F)c(Cl)c2)nc2ccc(Cl)cc21 [Compound 581] | 1 | 1 | 15 | 0.07
O=C(c1ccc(F)cc1F)n1c(-c2cccc3ccccc23)nc2cc(Cl)ccc21 [Compound 694] | 2 | 32 | 35 | 1.23
O=C(c1ccc2nc(-c3cccc4ccccc34)n(Cc3cccc4ccccc34)c2c1)N1CCOCC1 [Compound 1409] | 1 | 1 | 4 | 0.03
COC(=O)c1ccc2nc(-c3cccc4ccccc34)n(S(=O)(=O)c3ccc4ccccc4c3)c2c1 [Compound 1384] | 1 | 2 | 13 | 0.07
N#Cc1ccc(C(=O)c2c[nH]c3ccc(Cl)cc23)cc1 [Compound 874] | 1 | 7 | 52 | 0.13
O=C(c1ccccc1)n1c(-c2ccc3ccccc3c2)nc2cc(F)ccc21 [Compound 584] | 1 | 3 | 31 | 0.2
Cc1ccc2c(c1)nc(-c1cccc3ccccc13)n2C(=O)c1ccccc1 [Compound 701] | 1 | 2 | 35 | 0.08
O=C(c1ccc(F)c(F)c1)n1c(-c2csc3ccccc23)nc2cc(Cl)ccc21 [Compound 861] | 1 | 2 | 90 | 0.07
O=C(c1cnc2ccccc2c1)n1c(-c2cccc3ccccc23)nc2ccc(Cl)cc21 [Compound 856] | 1 | 38 | 46 | 1.31
O=C(c1ccc2c(c1)nc(-c1cccc3ccccc13)n2S(=O)(=O)c1ccc2ccccc2c1)N1CCCCC1 [Compound 1340] | 1 | 1 | 8 | 0.03
O=C(C1CCCCC1)n1c(-c2cccc3ccccc23)nc2cc(Cl)ccc21 [Compound 866] | 1 | 34 | 50 | 1.17
O=C(c1ccc2nc(-c3cccc4ccccc34)n(S(=O)(=O)c3ccc(Cl)cc3)c2c1)N1CCCCC1 [Compound 1367] | 1 | 1 | 3 | 0.03
Fc1ccc(Cn2c(-c3cccc4ccccc34)nc3ccc(Cl)cc32)cc1F [Compound 888] | 1 | 1 | 9 | 0.02
O=C(c1ccccc1)n1c(-c2cc3ccccc3o2)nc2ccc(Cl)cc21 [Compound 588] | 1 | 5 | 30 | 0.33
CC1(O)c2cccc3cccc(c23)-c2nc3ccccc3n21 (stereo not drawn) [Compound 525, 7-methyl-7H-benzo[de]benzo[4,5]imidazo[2,1-a]isoquinolin-7-ol] | 1 | 5.6 | 20 | 0.4
COc1ccc(C(=O)n2c(-c3cccc4ccccc34)nc3cc(Cl)ccc32)cc1OC [Compound 682] | 1 | 18 | 32 | 0.69
N#Cc1ccc(C(=O)n2c(-c3cccc4ccccc34)nc3cc(Cl)ccc32)cc1 [Compound 688] | 2 | 28 | 44 | 1.08
O=C(c1cccc2ccccc12)n1c(-c2ccccc2)nc2ccc(Cl)cc21 [Compound 491] | 1 | 1 | 24 | 0.03
O=C(c1ccc2nc(-c3cccc4ccccc34)n(Cc3ccc(SC(F)(F)F)cc3)c2c1)N1CCCCC1 [Compound 1412] | 1 | 1 | 6 | 0.03
O=C(c1ccccc1)n1c(-c2ccc3ccccc3c2)nc2ccc(F)cc21 [Compound 585] | 1 | 1 | 34 | 0.07
Cc1ccc(S(=O)(=O)n2c(-c3cccc4ccccc34)nc3ccc(Cl)cc32)cc1 [Compound 528, 6-chloro-2-(naphthalen-1-yl)-1-tosyl-1H-benzo[d]imidazole] | 1 | 19 | 35 | 0.48
O=C(c1ccc(F)c(F)c1)n1c(-c2csc3ccccc23)nc2ccc(Cl)cc21 [Compound 862] | 1 | 2 | 82 | 0.07
COC(=O)c1ccc2nc(-c3cccc4ccccc34)n(S(=O)(=O)c3ccc(C(F)(F)F)cc3)c2c1 [Compound 1402] | 1 | 2 | 3 | 0.07
